{"source": "paper PMC4067149", "about": "(Biochemistry, 2014)", "target": "T1, DEBS AT3 (Saccharopolyspora erythraea, UniProt Q03132)", "T1 sequence (Q03132 460-880 limits assumed)": "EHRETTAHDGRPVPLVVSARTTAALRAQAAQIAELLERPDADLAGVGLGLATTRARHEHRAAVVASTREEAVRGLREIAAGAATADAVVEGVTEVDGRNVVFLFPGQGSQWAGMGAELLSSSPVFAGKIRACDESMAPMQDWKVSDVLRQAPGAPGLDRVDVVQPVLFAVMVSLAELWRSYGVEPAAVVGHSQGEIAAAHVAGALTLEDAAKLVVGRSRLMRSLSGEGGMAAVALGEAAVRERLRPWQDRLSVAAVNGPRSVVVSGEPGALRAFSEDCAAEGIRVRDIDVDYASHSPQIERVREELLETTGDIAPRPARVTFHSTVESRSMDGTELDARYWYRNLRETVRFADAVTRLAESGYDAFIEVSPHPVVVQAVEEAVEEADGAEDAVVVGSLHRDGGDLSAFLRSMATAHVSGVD", "test": "alpha-KGDH coupled fluorometric NADH assay, hydrolysis", "assay_type": "biochemical", "settings": "no ACP, pH 7.6, 10% glycerol", "data": [{"smiles": "CC(C(=O)O)C(=O)SCCNC(=O)CCNC(=O)[C@H](O)C(C)(C)COP(=O)(O)OP(=O)(O)OC[C@H]1O[C@@H](n2cnc3c(N)ncnc32)[C@H](O)[C@@H]1OP(=O)(O)O", "note": "(stereo partly shown) [MMCoA, methylmalonyl-CoA]", "values": [{"measurement": "alpha-KGDH coupled fluorometric NADH assay, hydrolysis", "result": "DEBS AT3 showed the highest rate of hydrolysis with its natural substrate, methylmalonyl-CoA"}]}]}
